Legend:
human BKαβ1 channels = molecular target: T1, human BKαβ1 channels (Homo sapiens, UniProt Q12791); experiment: BK current in CHO cells expressing human BKαβ1 (PatchXpress whole-cell patch clamp), EC100; assay type: cell-based; settings: drug concentration causing 100% increase of BK current
T1 construct: expressed in transfected cells; host or cells: CHO cells (G418 and hygromycin selection)
Method: Methods for Testing Compounds on Human BKαβ1 Channels Expressed Cho Cells
CHO cells expressing human BKαβ1 were cultured in T75 or 6 well cell culture cluster. Medium: DMEM/F12+10% FBS+0.5 mg/mL G418/genetecin+0.1 mg/mL Hygromycin. Split cells every 3-4 days at 80-90% confluence. Use cells for experiments 60-72 hrs after re-passage and at ˜90% confluence.
Trypsin solution (0.05% Trypsin+0.1% EDTA), Ca^2+ free PBS and culture medium were warmed to 37° C. Inspect the T75 flask for cell confluence. Remove culture medium and add warm Ca^2+ free PBS to wash cells. Remove Ca^2+ free PBS and add warm Trypsin solution. Put the T75 flask back to 37° C. incubator for about 4.5 minutes. Stop Trypsin activity by adding culture medium. Spin the cells down. Suspend cells in 120-160 μL external solution for BK current recording and use the cells as soon as possible.
PatchXpress Sealchip 16 electrodes (AVIVA Biosciences) and PatchXpress 7000A (Axon Instruments, Inc) were used for BK current recording. Flat bottom 1.5 mL glass vial (HiPep Laboratories) were used for containing external solutions (±compounds). The holes in the sealchip (equivalent to patch electrode) had resistance about 1.5 MΩ. Cell membrane capacitance was compensated and access resistance was also compensated by 40%. Voltage-clamp protocol: Holding voltage=0 mV. Record BK current during 200-ms steps between +80 to +120 mV in 10 mV increments and 2 sec inter-pulse interval. On-line digital leak subtraction was performed by a P/−4 procedure. After whole-cell configuration was established, 2 minute was used to optimize access resistance. Then the chamber was washed with control bath solution for 1 minute to remove excessive cells. Control bath solution was added with robotic pipette and control BK current was recorded after 1 minute equilibrium time. For each drug concentration, 45 μL drug solution was added three times with “suction before adding” mode which left old solution. For each drug addition, 1 minute equilibrium time was given. BK current was measured at each drug concentrations (usually within 3.5 minutes after first drug addition). Calculate % change of BK current at the voltage step when the control BK current first exceeding 200 pA. If the control BK current was less than 200 pA at 120 mV, the cell was not used. % changes were calculated as 100*(Id−Ic)/Ic, where Id was the current amplitude in the presence of drug and Ic was the control current amplitude.
EC100 was defined as the drug concentration causing 100% increase of BK current calculated by the method described above. EC100 was determined by the data points just below and above 100%. % Increase of BK current was plotted against log [drug concentration]. A straight line connected two data points flanking 100%. From this straight line, the concentration corresponding to 100% increase of BK current was determined as EC100.
Compounds were dissolved in DMSO to make 10 mM stock solutions. Subsequent dilutions were made with external solution. The testing drug concentrations were 0.1, 0.3, 1, 3 and 10 μM depending on the potency of compounds. The highest DMSO concentration was 0.1%. External solution (in mM): 140 NaCl, 4 KCl, 1 MgCl2, 2 CaCl2, 10 Glucose, 10 HEPES; pH=7.4 with NaOH. Internal solution (in mM): 140 KCl, 5 EGTA, 1 MgCl2, 5 MgATP, 0.2 CaCl2, 5 HEPES; pH=7.2 with KOH.

[1] = tested on: rhythmic bladder contractions; experiment: Inhibitory effect on the rhythmic bladder contractions in anesthetized rats; assay type: in vivo, rat; settings: 10 mg/kg
Text: Inhibitory Effect on the Rhythmic Bladder Contractions in Anesthetized Rats
Female Sprague-Dawley rats (9 to 12 weeks old weighing between 200 to 300 g) were anethethized with urethane (subcutaneously administered with a dose of 1.2 g/kg). Both ureters were cannulated to excrete urine. A cannula was inserted into the bladder via the urethra and secured with a ligature around the urethral opening and connected to a three-way stopcock. The ends were connected to a pressure transducer for measurement of bladder pressure and to a infusion pump for intravesical infusion of saline. A cannula was inserted in the femoral vein for intravenous (i.v.) drug administration. Following a over 20 minute post-surgical stabilization period and emptying of urine in the bladder, saline was infused into the bladder (50 μl/min) to evoke the micturition reflex. After the rhythmic bladder contractions had occurred, the saline infusion rate into the bladder was changed to 5 μl/min in order to maintain these contractions. Compounds were administered after stable rhythmic bladder contraction was obtained over 15 minutes. All compounds were dissolved in saline containing 10% dimethyl acetamide for intravenous administration (1 ml/kg). When iberiotoxin, a large conductance calcium-activated K channel blocker (0.15 mg/kg, i.v.) was administered for comparison purposes, it was administered 5 minutes before drug administration.
The frequencies (contractions per minute) of rhythmic bladder contractions were calculated for 10 minutes before and after drug administration. The efficacy of compounds expressed as percent of inhibition in frequency, which calculated from the following formula: (1−frequency after dosing/frequency before dosing)×100(%)

Cox-1 = molecular target: T2, Cox-1 (Rattus norvegicus, UniProt Q63921); experiment: COXs inhibition, rat whole blood Cox-1; assay type: cell-based; settings: read-out: ratWB Cox-1 IC50
T2 construct: from tissue; host or cells: rat whole blood ('ratWB')
T2 sequence (Q63921 27-602): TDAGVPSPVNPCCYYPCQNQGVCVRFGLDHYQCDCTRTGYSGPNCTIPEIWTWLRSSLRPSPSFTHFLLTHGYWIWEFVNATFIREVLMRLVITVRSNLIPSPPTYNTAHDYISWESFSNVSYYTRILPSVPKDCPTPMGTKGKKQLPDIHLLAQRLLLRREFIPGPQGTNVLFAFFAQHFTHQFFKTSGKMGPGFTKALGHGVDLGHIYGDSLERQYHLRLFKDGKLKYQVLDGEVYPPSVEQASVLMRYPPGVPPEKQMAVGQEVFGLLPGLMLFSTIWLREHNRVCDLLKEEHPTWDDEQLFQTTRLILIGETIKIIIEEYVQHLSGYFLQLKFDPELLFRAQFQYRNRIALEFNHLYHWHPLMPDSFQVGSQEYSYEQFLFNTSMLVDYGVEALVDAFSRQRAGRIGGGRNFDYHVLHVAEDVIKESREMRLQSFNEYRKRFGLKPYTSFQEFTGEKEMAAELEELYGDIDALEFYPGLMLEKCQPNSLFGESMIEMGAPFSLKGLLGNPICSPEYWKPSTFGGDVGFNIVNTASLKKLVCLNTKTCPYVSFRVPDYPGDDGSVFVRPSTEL
Method: Methods for Testing Compounds on Inhibiting COXs
Activities of inhibiting COXs can be investigated by the manner described in Proc. Natl. Acad. Sci. USA 96, 7563, […].
As a result, compounds of the present invention are less or no potent COXs inhibitors. A result of COXs inhibition of the selected compounds (Example Nos. 1, 3, 12, 188, 474, 497, 507, 513, 527, 533, 562, and 638) are: ratWB Cox-1 IC50>30 μM and ratWB IC50>30 μM.

T1 sequence (Q12791 whole entry): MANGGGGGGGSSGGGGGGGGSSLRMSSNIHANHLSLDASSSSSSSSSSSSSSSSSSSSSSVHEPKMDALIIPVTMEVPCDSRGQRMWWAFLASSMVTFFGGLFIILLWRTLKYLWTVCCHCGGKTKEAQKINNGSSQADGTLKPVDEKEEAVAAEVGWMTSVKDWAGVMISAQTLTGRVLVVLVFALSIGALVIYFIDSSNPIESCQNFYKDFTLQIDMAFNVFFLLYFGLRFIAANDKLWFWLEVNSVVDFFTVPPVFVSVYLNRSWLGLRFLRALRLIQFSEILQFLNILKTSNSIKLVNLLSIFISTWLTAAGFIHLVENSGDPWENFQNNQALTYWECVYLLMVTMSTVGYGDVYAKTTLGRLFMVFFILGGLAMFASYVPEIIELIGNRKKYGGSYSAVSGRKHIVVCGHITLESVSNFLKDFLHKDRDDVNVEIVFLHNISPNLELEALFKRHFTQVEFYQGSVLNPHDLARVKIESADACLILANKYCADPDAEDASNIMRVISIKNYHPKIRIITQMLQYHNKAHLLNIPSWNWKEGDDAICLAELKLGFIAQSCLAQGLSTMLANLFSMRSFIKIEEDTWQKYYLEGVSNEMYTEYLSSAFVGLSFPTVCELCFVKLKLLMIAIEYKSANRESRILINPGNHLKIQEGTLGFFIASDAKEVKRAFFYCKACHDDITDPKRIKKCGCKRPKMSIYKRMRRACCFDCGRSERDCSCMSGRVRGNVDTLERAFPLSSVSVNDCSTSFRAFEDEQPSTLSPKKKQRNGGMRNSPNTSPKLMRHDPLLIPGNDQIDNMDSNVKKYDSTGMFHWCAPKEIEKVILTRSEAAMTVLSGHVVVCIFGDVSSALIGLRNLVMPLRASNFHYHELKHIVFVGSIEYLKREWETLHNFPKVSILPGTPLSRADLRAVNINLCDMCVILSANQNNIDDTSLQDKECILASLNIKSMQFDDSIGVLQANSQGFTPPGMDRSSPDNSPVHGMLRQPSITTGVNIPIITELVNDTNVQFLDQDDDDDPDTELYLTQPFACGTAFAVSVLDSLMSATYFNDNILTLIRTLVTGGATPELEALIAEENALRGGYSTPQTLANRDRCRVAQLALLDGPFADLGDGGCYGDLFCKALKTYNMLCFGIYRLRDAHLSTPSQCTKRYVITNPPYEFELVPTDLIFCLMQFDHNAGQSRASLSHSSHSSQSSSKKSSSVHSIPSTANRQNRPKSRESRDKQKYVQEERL
T1 sequence (Q16558 whole entry partner): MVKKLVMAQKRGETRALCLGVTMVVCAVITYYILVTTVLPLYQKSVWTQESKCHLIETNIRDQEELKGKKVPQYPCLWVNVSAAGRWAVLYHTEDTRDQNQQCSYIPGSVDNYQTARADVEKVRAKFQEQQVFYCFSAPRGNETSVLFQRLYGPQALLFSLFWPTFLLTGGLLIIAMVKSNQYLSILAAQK

Row | Structure (SMILES) | EC100 (human BKαβ1 channels) | percent of inhibition in frequency of rhythmic bladder contractions ([1]; anesthetized rats, intravenous) | IC50 (Cox-1) | percent of inhibition in frequency of rhythmic bladder contractions ([1]; anesthetized female Sprague-Dawley rats, i.v., 10 minutes before vs after dosing)
1 | CCC(CC)(Oc1cc(N2CCC[C@H]2COC)nc(-c2ccc(Cl)c(F)c2)n1)C(=O)[O-].[Na+] [Example 31] | 0.14 µM | B (B: 50 > inhibition(%) > 30) |  | 
2 | CCOc1cc(-c2nc(-c3ccc(F)cc3)nc(OC3(C(=O)[O-])CC3)c2C)ccc1F.[Na+] [Example 977] | 0.13 µM | B (B: 50 > inhibition(%) > 30) |  | 
3 | COc1ccccc1-c1cc(OC2(C(=O)[O-])CCCC2)nc(-c2ccc(Cl)c(F)c2)n1.[Na+] [Example 565] | 0.28 µM | B (B: 50 > inhibition(%) > 30) |  | 
4 | COCCOc1cc(F)ccc1-c1cc(OC2(C(=O)[O-])CC2)nc(-c2ccc(F)c(F)c2)n1.[Na+] [Example 619] | 0.49 µM | B (B: 50 > inhibition(%) > 30) |  | 
5 | CC(C)(Oc1cc(-c2cccc3cccnc23)nc(-c2ccc(Cl)c(F)c2)n1)C(=O)[O-].[Na+] [Example 497] | 0.31 µM | B (B: 50 > inhibition(%) > 30) |  | 
6 | Cc1ccc(Cl)cc1-c1nc(OC2(C(=O)[O-])CC2)nc(-c2ccc(Cl)cc2)n1.[Na+] [Example 1091] | 0.03 µM | B (B: 50 > inhibition(%) > 30) |  | 
7 | O=C(O)COc1cc(N2CCc3ccccc32)nc(-c2ccc(Cl)c(F)c2)n1 [Example 3] |  |  | > 30 µM | 
8 | COC[C@@H]1CCCN1c1cc(OC(C)(C)C(=O)[O-])nc(-c2ccc(Cl)c(F)c2)n1.[Na+] [Example 12] | 1.39 µM | A (A: inhibition(%) > 50) |  | 
9 | CC(C)(Oc1cc(N2CCCCC2)nc(-c2ccc(Cl)c(F)c2)n1)C(=O)O [Example 1] |  |  | > 30 µM | 
10 | COCc1ccc(-c2cc(OC3(C(=O)[O-])CC3)nc(-c3ccc(Cl)c(F)c3)n2)cc1.[Na+] [Example 527] | 0.37 µM | A (A: inhibition(%) > 50) |  | 
11 | COC[C@@H]1CCCN1c1cc(OC2(C(=O)[O-])CC2)nc(-c2cc(Cl)c(Cl)s2)n1.[Na+] [Example 5] | 0.78 µM |  |  | 78%
12 | O=C([O-])C1(Oc2cc(N3CCC(CCO)CC3)nc(-c3ccc(Cl)c(F)c3)n2)CCCC1.[Na+] [Example 59] | 0.51 µM | B (B: 50 > inhibition(%) > 30) |  | 
13 | CCO[C@H]1CCCN(c2nc(OC3(C(=O)[O-])CC3)cc(-c3cc(Cl)c(Cl)s3)n2)C1.[Na+] [Example 1227] | 0.37 µM | B (B: 50 > inhibition(%) > 30) |  | 
14 | COc1ccc(-c2cc(OC3(C(=O)[O-])CC3)nc(-c3ccc(Cl)c(F)c3)n2)cn1.[Na+] [Example 534] | 0.36 µM | B (B: 50 > inhibition(%) > 30) |  | 
15 | CC(C)(Oc1cc(N2CCC[C@H]2CF)nc(-c2ccc(Cl)c(F)c2)n1)C(=O)[O-].[Na+] [Example 22] |  | A (A: inhibition(%) > 50) |  | 
16 | O=C([O-])C1(Oc2cc(N3CCc4cc(F)ccc4C3)nc(-c3ccc(F)cc3)n2)CC1.[Na+] [Example 1110] | 0.3 µM | B (B: 50 > inhibition(%) > 30) |  | 
17 | CCCOC1CCN(c2cc(OC3(C(=O)[O-])CC3)nc(-c3ccc(C(F)(F)F)cc3)n2)CC1.[Na+] [Example 693] |  | A (A: inhibition(%) > 50) |  | 
18 | CC(C)OC1CCN(c2cc(OC3(C(=O)[O-])CC3)nc(-c3ccc(Cl)c(F)c3)n2)CC1.[Na+] [Example 52] |  | A (A: inhibition(%) > 50) |  | 
19 | COc1ccc(-c2cc(OC3(C(=O)[O-])CCCC3)nc(-c3ccc(Cl)c(F)c3)n2)cn1.[Na+] [Example 567] |  | B (B: 50 > inhibition(%) > 30) |  | 
20 | O=C(O)COc1cc(-c2ccc(Cl)c(F)c2)nc(-c2ccc(F)cc2)n1 [Example 188] |  |  | > 30 µM | 
